# In a melting point compilation (Tetko et al.):
row,melting point [°C],Structure (SMILES)
1,198,Cc1ccc(C)c(C=Cc2ccc(-c3ccc(C=Cc4cc(C)ccc4C)cc3)cc2)c1
2,109,Cc1cc(C)n(CO)n1
3,45,CC(C)CC1c2ccccc2-c2ccccc21
4,117 to 119,CC(=O)c1cc(-c2c(Cl)cccc2Cl)no1
5,130 to 132,O=C(O)c1cc(-c2ccccc2)c(C(F)(F)F)s1
6,145 to 148,CC(C)(C)c1ccc(C(N)=S)cc1
7,109,CCCCCCCCCCCCN1c2ccccc2C(C)(C)C12C=Cc1cc([N+](=O)[O-])ccc1O2 (stereo not drawn)
8,95 to 100,COc1cc(Br)c(CO)cc1OC
9,30,CCOC(=O)C=C(C)OCC
10,200,O=C(O)c1cccc(C(=O)O)c1C(=O)O
11,218,Cc1cc(C2(c3cc(C)c(O)c(Br)c3C)OS(=O)(=O)c3ccccc32)c(C)c(Br)c1O
12,57,Cc1cc(-c2onc(C)c2C(=O)Cl)no1
13,36 to 41,Fc1cc(I)ccc1Br
14,208,CC1=C(C(=O)OC(C)(C)C)C(c2ccco2)NC(=O)N1 (stereo not drawn)
15,150 to 152,CCOC(=O)Cc1nn(CC(N)=S)c(=O)c2ccccc12
16,35,COc1c(F)cc(F)cc1C#N
17,48.5,OC(c1ccc(Cl)cc1)c1cc2ccccc2o1 (stereo not drawn)
18,189,CCCOC(=O)C1=C(C)NC(=O)NC1c1ccccc1O (stereo not drawn)
19,182 to 188,COc1cc(O)c2c(=O)c(O[C@@H]3O[C@H](CO)[C@H](O)[C@H](O)[C@@H]3O[C@@H]3O[C@H](C)[C@H](O)[C@H](O)[C@@H]3O)c(-c3cccc(O)c3)oc2c1
20,141,COc1c(C)c2c(c(O)c1CC=C(C)CCC(=O)O)C(=O)OC2
21,92.5 to 93.5,CC1(CC(=O)O)OCCc2sccc21 (stereo not drawn)
22,158 to 162,CCOC(=O)c1sc(SC)nc1NC(=O)Nc1ccc(Cl)c(Cl)c1
23,170,CCC(C(=O)O)c1ccccc1C(=O)O (stereo not drawn)
24,175 to 177,CC(C)(C)OC(=O)N1CCC(Oc2ccc(C(=O)O)cc2)CC1

row,melting point [°C],Structure (SMILES)
1,87,Cc1cc(C)c(CO)c(C)c1
2,118,CCC(C(=O)Nc1ccc(C)cc1)c1ccc(C)cc1 (stereo not drawn)
3,-40,CCCCCCOCCOCCO
4,97 to 100,Cn1ncc2c(Cl)ncnc21
5,79,COC(=O)c1ccc2cc[nH]c2c1
6,101,N#Cc1ccc(F)cc1C#N
7,-6,CC(C)(C)OC(=O)CC(=O)OC(C)(C)C
8,37,C=CCNC(=O)OC(C)(C)C
9,111,OCC1(O)CC(O)C(O)CO1 (stereo not drawn)
10,57 to 59,COC(=O)c1sccc1N=C=S
11,146,CCCc1nc(O)n(-c2ccccc2)n1
12,129,COc1ccc(O)c2ccccc12
13,63 to 65,CC(CSc1ccc(Cl)cc1)C(=O)O (stereo not drawn)
14,115 to 117,CC(=O)Nc1ccc(OC(F)(F)F)cc1
15,70,Clc1ccc(Br)c(Cl)n1
16,43.5,CCOc1cc(OCC)cc(OCC)c1
17,243,CCOC(=O)C1=C(C)NC(=O)NC1c1cccc(Cl)c1Cl (stereo not drawn)
18,256,O=C(Nc1ncc([N+](=O)[O-])s1)c1cccs1
19,176,CC1(c2ccccc2)OC(C(=O)O)=CC1=O (stereo not drawn)
20,281 to 284,O=C(O)c1cc(C(=O)O)c(C(=O)O)cc1C(=O)O
21,221,Cc1c(C)c(C)c2c(=O)n3ccccc3cc2c1C
22,-113,CCCCCC(C)(C)C
23,70,Clc1ccc(Br)cn1
24,163,COc1cc(NC(=S)N(C)C)c(C(c2ccc(C)o2)c2ccc(C)o2)cc1OC

row,melting point [°C],Structure (SMILES)
1,110 to 112,Nc1noc2ccccc12
2,93 to 94,CC(C)CCOC(=O)C=Cc1ccc(C=CC(=O)OCCC(C)C)c([N+](=O)[O-])c1
3,240,NC(Cc1n[nH]c2ccccc12)C(=O)O (stereo not drawn)
4,-8,C=C1N(C)c2ccccc2C1(C)C
5,102,CCOC(=O)C(C)C(O)(c1ccccc1)c1ccccc1 (stereo not drawn)
6,119,OCC1(O)OCC(O)C(O)C1O (stereo not drawn)
7,46 to 47,FC(F)(F)c1ccc(Br)nc1
8,55,CCN(C(C)=O)c1ccccc1
9,196 to 199,CC(C)(C)OC(=O)N[C@@H](Cc1c[nH]cn1)C(=O)O
10,59 to 60,CC1(C)Cc2cccc(CO)c2O1
11,186 to 189,CCN(CC)c1ccc(/C=C2\CC/C(=C\c3ccc(N(CC)CC)cc3)C2=O)cc1
12,219 to 224,COC(=O)c1ccc2c(C=O)c[nH]c2c1
13,240,Cn1c(=O)c(C2=NNC(=O)C2=Cc2ccccc2O)c(O)c2ccccc21
14,135,Nc1ccc(-c2ccccc2)cn1
15,280,Cc1ccc(C=C2C(=O)NN=C2c2c(O)c3ccccc3n(C)c2=O)cc1
16,138,O=C(O)Cc1ccc(I)cc1
17,116,Ic1cccc(I)c1I
18,270,Cn1c(=O)c2[nH]cnc2n(C)c1=O
19,168,O=C1C(C(O)c2ccc(Cl)cc2)C(C(F)(F)F)=NN1c1ccccc1 (stereo not drawn)
20,88,CC(C)(C)c1cc(O)cc(C(C)(C)C)c1
21,151,Cc1cc(/C=C/c2ccccc2N)c(N)cc1N
22,29,COC(=O)Oc1c(F)c(F)c(F)c(F)c1F

# The next lines start with the compound.
row,Structure (SMILES),melting point [°C]
1,COC(=O)Nc1cccc(OC(=O)Nc2cccc(C)c2)c1,143
2,Clc1ccc2scc(CBr)c2c1,129 to 130
3,O=C1c2ccccc2C(=O)N1SC(Cl)(Cl)Cl,178
4,CC1(C(=O)O)CC2C=CC1C2 (stereo not drawn),80
5,Nc1ccc(S(=O)(=O)F)cc1,68.5
6,O=Cc1ccsc1,-30
7,FC(F)(F)c1nc(C(F)(F)F)nc(C(F)(F)F)n1,-24.8
8,N#C/C(=N\Nc1ccc(Cl)cc1)c1nc2ccccc2s1,188
9,Cc1ccc(Br)cc1Br,-9.7
10,CC(CCC(=O)O)C1CCC2C3CCC4CC(=O)CCC4(C)C3CC(O)C12C (stereo not drawn),107 to 109
11,Clc1cc2nsnc2cc1CBr,75 to 77
12,C=CC1(C)OC(=O)N(c2cc(Cl)cc(Cl)c2)C1=O (stereo not drawn),108
13,O=C1CC(=O)CC(c2ccco2)C1,146 to 149
14,COc1ccc(C=CC(=O)OCCOc2ccc(C=CC(=O)c3ccccc3)cc2)cc1,142
15,C=CCN1CCC23c4c5ccc(O)c4OC2C(O)C=CC3C1C5 (stereo not drawn),208
16,CC(C)(O)C#CC#CC(C)(C)O,132 to 134
17,CC(C)c1cc(C(C)C)c(-c2ccccc2P(C2CCCCC2)C2CCCCC2)c(C(C)C)c1,185
18,c1cc2c(cc1CN1CCNCC1)OCO2,43
19,NS(=O)(=O)c1ccc(-c2ccc(C=O)o2)cc1,199 to 201
20,CC(Oc1ccc(Cl)cc1Cl)C(=O)O (stereo not drawn),122

row,Structure (SMILES),melting point [°C]
1,COC(=O)CC[C@@H](C)[C@H]1CC[C@H]2[C@@H]3C(=O)C[C@@H]4CCCC[C@]4(C)[C@H]3CC[C@]12C,92.9
2,CCCCCCCCCCCCCCCCCCCCC1CCCCC1,48.5
3,C=CC(=C)Cl,-130
4,CC(C)(c1ccc(OC(=O)Cl)cc1)c1ccc(OC(=O)Cl)cc1,90 to 95
5,CCCCCCCCCC(=O)OC(=O)CCCCCCCCC,24.7
6,O=C(O)C1CSC(c2ccccc2)N1 (mixture of isomers),158 to 162
7,CC(C=O)=CN,101 to 103
8,Nc1nc(N)c2nc(-c3ccccc3)c(N)nc2n1,316
9,Nc1cc(Cl)cc(C(=O)O)c1Cl,200
10,Nc1ccc(C=Cc2cccc(N)c2)cc1,109
11,C=C1CCC(=O)O1,18
12,CC(C)C(C)N (stereo not drawn),-50
13,CC12CCC(O)C(C)(C)C1C(=O)C(=O)c1c(O)c(C(CO)CO)c(O)c(O)c12 (stereo not drawn),238 to 240
14,O=C(c1ccccc1)C1C(=O)c2ccccc2C1=O,108 to 112
15,Nc1cccc(N)c1N,103
16,C=C1CCC(O)CC1=CC=C1CCCC2(C)C1CCC2C(C)CCCC(C)C (stereo not drawn),84.5
17,O=[N+]([O-])c1cc([N+](=O)[O-])c(C(Br)C(Br)c2ccccc2)cc1/C=C\c1ccccc1 (stereo not drawn),212
18,CN(C)CCC#N,-43
19,CC(CO)NC(=O)C1C=C2c3cccc4[nH]cc(c34)CC2N(C)C1 (stereo not drawn),162
20,C[C@H](N)C(=O)O,314 to 316

row,Structure (SMILES),melting point [°C]
1,C=CC#CC=C,-88
2,CCCCCCCCCCCC(=O)N(C)CC(=O)O,44 to 48
3,CCCCCCCCCCNC(=O)C(C(F)(F)F)C(F)(F)F,66
4,CCCCCCCCCCCCCCN,83.1
5,O=C(c1ccccc1)C1CNc2cc3c(cc2C1)CC(C(=O)c1ccccc1)CN3 (stereo not drawn),209
6,N=C(N)SCCCS(=O)(=O)O,240 to 248
7,OCC1OC(O)C(F)C(O)C1O (stereo not drawn),170 to 176
8,C=C(C)C1(O)C2OC(=O)C1C1(O)C3OC3C3(CO3)C1(C)C2O (stereo not drawn),225
9,Nc1ccc(O)c2c1C(=O)c1ccccc1C2=O,216
10,CC(=O)OCC(=O)C12OC(C)(C)OC1CC1C3CC(F)C4=CC(=O)C=CC4(C)C3(F)C(O)CC12C (stereo not drawn),309
11,CC1(C)CC(=O)CC(C)(C)C1,11 to 12
12,O=[N+]([O-])c1ccccc1Nc1ccccc1,75
13,O=Cc1ccc(Oc2cccnc2)o1,72 to 73
14,CCCCCCCCCCCCCCCCOC(=O)C(C)O (stereo not drawn),41
15,Cc1ccc(C(=O)CBr)c(C)c1,44
16,C=C1C(=O)C23C(OC(C)=O)CC4C5(C)CCCC4(C(OC(C)=O)OC5)C2C(OC(C)=O)CC1C3OC(C)=O (stereo not drawn),224
17,O=C(C1=NOC2C(=O)N(c3ccc(Br)cc3)C(=O)C12)c1ccc(Cl)cc1 (stereo not drawn),184
18,Cc1cc(Cl)ccc1N,30.3
